Laboratory results: a compilation of properties of binary mixtures (doi:10.1016/j.seppur.2020.117103)
One block for each compound: values may come before it.

Assay: xn = mol fraction of the nth substance listed
Conditions: 298.15 K, 100 kPa

- speed of sound (x1 = 1): 1103 m/s
SMILES: CO + CC[n+]1ccn(C)c1.N#C[S-]

- speed of sound (x2 = 0): 1851 m/s
- speed of sound (x2 = 0.2018): 1813 m/s
- speed of sound (x2 = 0.3185): 1780 m/s
- speed of sound (x2 = 0.4076): 1750 m/s
- speed of sound (x2 = 0.5037): 1711 m/s
- speed of sound (x2 = 0.5936): 1655 m/s
- speed of sound (x2 = 0.6923): 1585 m/s
- speed of sound (x2 = 0.805): 1477 m/s
- speed of sound (x2 = 0.9014): 1328 m/s
SMILES: CC[n+]1ccn(C)c1.N#C[S-] + CO

- speed of sound (x2 = 0): 1851 m/s
- speed of sound (x2 = 0.2134): 1797 m/s
- speed of sound (x2 = 0.345): 1751 m/s
- speed of sound (x2 = 0.3836): 1729 m/s
- speed of sound (x2 = 0.6181): 1592 m/s
- speed of sound (x2 = 0.6948): 1524 m/s
- speed of sound (x2 = 0.8944): 1285 m/s
SMILES: CC[n+]1ccn(C)c1.N#C[S-] + CCO

- speed of sound (x1 = 1): 1142 m/s
SMILES: CCO + CC[n+]1ccn(C)c1.N#C[S-]
